{
  "source": "patent US9066948B2",
  "about": "“Oxadiazolo[3,2-a]pyrimidines and thiadiazolo[3,2-a]pyrimidines” (THE UNITED STATES OF AMERICA AS REPRESENTED BY THE …, priority 2010, dated 2015)",
  "key": {"[1]": {"tested_on": "platelets", "assay": "Platelet adhesion assay: calcein-labeled platelets on fibrinogen-coated wells", "format": "cell-based", "settings": "Homo sapiens, mean±SD", "method": "Thirty microliters of human fibrinogen (50 μg/mL) in Tris/saline (100 mM NaCl, 50 mM Tris/HCl, pH 7.4; American Diagnostica, Stamford, Conn.) are added to black, clear-bottom, untreated polystyrene, nonsterile 384-well microtiter plate wells (Corning no. 3711; Acton, Mass.). […] An additional wash is performed using HBMT with 1 mM MgCl2 and 2 mM CaCl2. Calcein-labeled platelets (final concentration 1×10^11/L) are treated with selected Compounds of the Invention (final concentration of 100 μM, 30 μM, 10 μM or 1 μM) at 22° C. for 20 minutes. Thirty microliters of platelets are then added to the wells. After 1 hour of adhesion, wells are washed 3 times with HBMT-1 mM MgCl2/2 mM CaCl2 and the plates are read by a fluorescent microtiter plate reader (Envision; Perkin Elmer) to detect calcein fluorescence (490 nm excitation and 515 nm emission). Negative controls consist of wells containing platelets without compounds of the invention."}, "[2]": {"molecular_target": "T1, purified αIIbβ3 (Homo sapiens, UniProt P05106+P08514)", "T1 construct": "αIIbβ3 is purified from outdated single donor platelet concentrates obtained from the New York Blood Center; tissue New York Blood Center; host or cells: outdated single donor platelet concentrates", "T1 sequence (P08514 32-887 limits assumed)": "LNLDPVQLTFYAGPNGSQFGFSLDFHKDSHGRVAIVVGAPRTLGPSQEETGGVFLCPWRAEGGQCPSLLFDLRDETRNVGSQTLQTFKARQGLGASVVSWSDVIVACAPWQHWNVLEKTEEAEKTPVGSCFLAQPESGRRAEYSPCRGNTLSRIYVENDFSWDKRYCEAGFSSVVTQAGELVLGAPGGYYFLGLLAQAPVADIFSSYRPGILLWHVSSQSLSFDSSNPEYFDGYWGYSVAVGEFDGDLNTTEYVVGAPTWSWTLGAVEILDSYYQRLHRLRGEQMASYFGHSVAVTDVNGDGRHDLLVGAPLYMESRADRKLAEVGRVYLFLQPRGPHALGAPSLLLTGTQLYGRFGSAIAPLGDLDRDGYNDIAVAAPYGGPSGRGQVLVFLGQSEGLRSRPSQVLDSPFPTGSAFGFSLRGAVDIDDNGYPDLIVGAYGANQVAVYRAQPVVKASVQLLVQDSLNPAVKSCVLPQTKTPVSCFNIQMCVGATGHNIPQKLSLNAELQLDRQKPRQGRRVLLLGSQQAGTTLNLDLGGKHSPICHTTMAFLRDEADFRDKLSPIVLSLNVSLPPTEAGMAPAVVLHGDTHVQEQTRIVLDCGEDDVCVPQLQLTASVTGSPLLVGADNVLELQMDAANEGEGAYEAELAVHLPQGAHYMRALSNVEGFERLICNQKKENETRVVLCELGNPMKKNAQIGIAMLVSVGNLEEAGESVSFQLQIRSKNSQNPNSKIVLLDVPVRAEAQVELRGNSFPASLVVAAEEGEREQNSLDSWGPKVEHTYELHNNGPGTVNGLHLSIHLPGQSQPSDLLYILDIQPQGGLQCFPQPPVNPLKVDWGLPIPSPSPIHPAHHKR", "T1 sequence (P08514 891-1039 partner limits assumed)": "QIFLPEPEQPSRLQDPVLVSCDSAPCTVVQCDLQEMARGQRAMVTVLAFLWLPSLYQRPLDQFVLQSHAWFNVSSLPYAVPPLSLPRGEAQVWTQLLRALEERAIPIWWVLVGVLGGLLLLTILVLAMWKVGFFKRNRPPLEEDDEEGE", "T1 sequence (P05106 27-788)": "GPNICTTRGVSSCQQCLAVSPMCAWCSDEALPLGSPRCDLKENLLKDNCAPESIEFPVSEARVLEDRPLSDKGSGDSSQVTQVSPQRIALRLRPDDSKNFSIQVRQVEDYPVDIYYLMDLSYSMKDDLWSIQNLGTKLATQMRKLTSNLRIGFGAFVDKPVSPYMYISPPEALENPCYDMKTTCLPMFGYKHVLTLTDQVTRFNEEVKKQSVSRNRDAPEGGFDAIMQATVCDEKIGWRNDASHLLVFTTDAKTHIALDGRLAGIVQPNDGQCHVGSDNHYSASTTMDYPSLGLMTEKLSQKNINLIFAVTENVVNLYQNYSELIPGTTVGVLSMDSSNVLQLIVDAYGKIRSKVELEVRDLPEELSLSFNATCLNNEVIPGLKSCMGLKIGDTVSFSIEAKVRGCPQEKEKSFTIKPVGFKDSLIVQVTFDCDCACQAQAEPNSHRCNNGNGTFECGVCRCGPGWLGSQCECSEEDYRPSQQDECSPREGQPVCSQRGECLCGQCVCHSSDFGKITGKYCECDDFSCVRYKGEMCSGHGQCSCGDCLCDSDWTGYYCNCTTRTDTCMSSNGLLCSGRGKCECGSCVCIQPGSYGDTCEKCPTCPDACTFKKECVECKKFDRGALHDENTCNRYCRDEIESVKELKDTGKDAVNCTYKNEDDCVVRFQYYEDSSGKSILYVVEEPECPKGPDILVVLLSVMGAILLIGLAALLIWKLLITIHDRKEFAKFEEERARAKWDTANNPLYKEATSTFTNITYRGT", "assay": "Extension of purified αIIbβ3 in nanodiscs by negative staining electron microscopy", "settings": "concentrations up to 10 μM", "method": "In brief, the His-tagged membrane scaffold protein is prepared as a recombinant protein in E. coli and purified by Nickel affinity chromatography and anion exchange chromatography. Final assembly consists of solubilizing an equimolar mixture of 1,2-dimyristoyl-sn-glycero-3-phosphocholine and 1,2-dimyristoyl-sn-glycero-3-phospho-(1′-rac-glycerol) in octylglucoside and cholate and then adding the purified αIIbβ3. The detergents are removed with macroporous polymeric beads (Bio-Bead SM-2) and then the αIIbβ3 nanodiscs are separated from the empty nanodiscs by gel filtration.\nαIIbβ3 nanodiscs are treated with eptifibatide, tirofiban, 2-ethyl-7-(piperazin-1-yl)-5H-[1,3,4]thiadiazolo-[3,2-a]pyrimidin-5-one of U.S. Ser. No. 12/514,286, or the compound of Example 27 of the current invention for 1 hour at room temperature at concentrations up to 100 μM for 2-ethyl-7-(piperazin-1-yl)-5H-[1,3,4]thiadiazolo-[3,2-a]pyrimidin-5-one (a compound claimed in U.S. Ser. No. 12/514,286) and at concentrations up to 10 μM for 2-amino-N-(3-(5-oxo-7-(piperazin-1-yl)-5H-[1,3,4]thiadiazolo[3,2-a]pyrimidin-2-yl)phenyl)acetamide of Example 27. Samples are loaded onto carbon-coated copper grids that are glow-discharged by a carbon coating unit (Edwards; Crowley, UK), and then stained with 2% uranyl acetate, followed by drying. Imaging of αIIbβ3 nanodiscs is performed using a JOEL JEM 100CX transmission electron microscope (Jeol Ltd; Tokyo, Japan) at 80 kV and magnifications of 33,000× and 50,000×. Individual nanodiscs containing αIIbβ3 are manually selected for analysis using Image J (NIH, Bethesda, Md.). The distance from the bottom of the nanodisc to the height of the αIIbβ3 complex (nanodisc-integrin length; NIL) is measured as an indicator of integrin extension. The frequency distribution of NIL values is then analyzed for untreated αIIbβ3 nanodiscs and αIIbβ3 nanodiscs in the presence of different compounds."}, "[3]": {"tested_on": "platelets", "assay": "Platelet aggregation assay: ADP-induced, platelet-rich plasma", "format": "cell-based, human", "settings": "for IC50: Homo sapiens, Platelet, n=4", "method": "[…] After 30 seconds in the aggregometer (Kowa AF-10E; Tokyo, Japan) at 37° C. with stirring, ADP (5-20 μM) is added to induce aggregation and the light transmittance is measured for 8 minutes. The initial slopes of aggregation in the presence of different concentrations of the Compound being tested are used to generate an IC50."}, "[4]": {"molecular_target": "T2, αIIbβ3 (Homo sapiens, UniProt P05106+P08514)", "T2 construct": "Washed platelets are prepared in HBMT containing 2 mM CaCl2/1 mM MgCl2; endogenous in cells; host or cells: washed platelets", "T2 sequence (P08514 32-887 limits assumed)": "as the sequence (P08514 32-887 limits assumed) above", "T2 sequence (P08514 891-1039 partner limits assumed)": "as the sequence (P08514 891-1039 partner limits assumed) above", "T2 sequence (P05106 27-788)": "as the sequence (P05106 27-788) above", "assay": "Induction of ligand-induced binding site (LIBS) epitopes, flow cytometry of washed platelets", "format": "cell-based", "settings": "eptifibatide 10 μM = 100%, Example 27 at 100 μM", "method": "Washed platelets are prepared in HBMT containing 2 mM CaCl2/1 mM MgCl2. […] Fluorescently labeled monoclonal antibodies (PMI-1, LIBS-1, AP5, or 10E5; Alexa-488 conjugated; Invitrogen) are then added (20 μL, final concentration: 5 μg/mL) and incubated for 30 minutes at 22° C. in the dark, after which samples are diluted 1:10 in HBMT with CaCl2/MgCl2 for analysis by flow cytometry (FACSCalibur; Becton Dickinson, Franklin Lakes, N.J.). Antibody binding is reported as the geometric mean fluorescence intensity; nonspecific binding is determined by adding a 50-fold excess of unlabeled antibody before adding the labeled antibody. The net normalized fluorescence intensity in the presence of eptifibatide (10 μM, 30 min incubation at 22° C.) is assigned the value of 100%"}, "[5]": {"tested_on": "hαIIb/mβ3 platelets", "assay": "ADP-induced aggregation of platelets from mice expressing hαIIb/mβ3 (Example 45)", "format": "cell-based, mouse", "method": "Blood may be drawn via cardiac puncture from anesthetized Sprague Dawley rats (Taconic, Hudson, N.Y.), WT C57B1/6 mice (Jackson Laboratories, Bar Harbor, Me.), and mice expressing hαIIb/mβ3 and diluted 1:1 with a mixture of 4 parts 0.165 […], pH 7.4 containing 2 mM CaCl2 and 1 mM MgCl2. Blood from consenting human volunteers is obtained from a peripheral vein using a 19 gauge needle and anticoagulated with 1:10 vol 3.8% sodium citrate. Platelet-rich plasma (PRP) may be isolated by centrifugation at 22° C. at 350 g for 10 minutes (rats); 250 g for 2.5 minutes (mice); or 650 g for 4 minutes (human). Mouse PRP samples may be adjusted to 400,000 platelets/μl with the buffer used for dilution and human PRP may be adjusted to 300,000 platelets/μl with platelet-poor plasma. Samples of PRP may be either untreated or incubated for 5 minutes at 37° C. with the Compounds of the Invention (100 μM). Platelet aggregation may be induced by adding to PRP adenosine diphosphate (ADP) at 30 μM (rats and WT mice), 20 or 30 μM (hαIIb/mβ3 mice), or 5 μM (humans), and light transmission may be measured over time in an aggregometer (Kowa AG-10E, Tokyo, Japan) with stirring. Percent inhibition may be calculated by comparing the initial slope of untreated samples to the samples treated with the Compounds of the Invention."}},
  "note": "Several values for one entry are separate records, joined by “and”; a condition that tells them apart may be missing. Identical values can stand only once. Like-named read-outs stand apart in the source and are kept apart here.",
  "data": [
    {"compound": "NCC(=O)Nc1cccc(-c2nn3c(=O)cc(N4CCNCC4)nc3s2)c1", "note": "[Example 27, 2-amino-N-(3-(5-oxo-7-(piperazin-1-yl)-5H-[1,3,4]thiadiazolo[3,2-a]pyrimidin-2-yl)phenyl)acetamide]", "values": [
      {"measurement": "inhibition at 10 µM", "setting": "[1]; 10 μM", "value": "66 ± 10", "unit": "%"},
      {"measurement": "inhibition at 30 µM", "setting": "[1]; 30 μM, 5 separate experiments", "value": "80 ± 13", "unit": "%"},
      {"measurement": "inhibition at 100 µM", "setting": "[1]; 100 μM, 5 separate experiments", "value": "83 ± 7", "unit": "%"},
      {"measurement": "shift of nanodisc-integrin length (NIL) values / receptor extension", "setting": "[2]", "value": "do not induce receptor extension"},
      {"measurement": "potency in inhibiting platelet aggregation relative to 2-ethyl-7-(piperazin-1-yl)-5H-[1,3,4]thiadiazolo-[3,2-a]pyrimidin-5-one", "setting": "[3]", "value": "more than one hundred-fold more potent"},
      {"measurement": "IC50", "setting": "[3]; PPACK instead of citrate, read-out: IC50, ADP-induced platelet aggregation with PPACK as anticoagulant", "value": 220, "unit": "nM"},
      {"measurement": "IC50", "setting": "[3]; citrate anticoagulant, read-out: IC50, ADP-induced platelet aggregation of citrated PRP", "value": "90 ± 20", "unit": "nM"},
      {"measurement": "IC50 with PPACK relative to citrate", "setting": "[3]; PPACK vs citrate", "value": "~3", "unit": "fold"},
      {"measurement": "AP5 binding, % of the amount in the presence of eptifibatide", "setting": "[4]", "value": "18±5% and 18%"},
      {"measurement": "LIBS1 binding after 30 min, % of the amount in the presence of eptifibatide", "setting": "[4]", "value": "21±3", "unit": "%"},
      {"measurement": "PMI-1 binding, % of the amount bound by platelets treated with eptifibatide", "setting": "[4]", "value": "82±13", "unit": "%"},
      {"measurement": "inhibition of aggregation of platelets from a mouse expressing hαIIb/mβ3", "setting": "[5]", "value": "essentially completely inhibits the aggregation"}
    ]}
  ]
}
